Earlier results as cited in patent US7442709B2, “N3-substituted imidazopyridine c-Kit inhibitors” (OSI Pharmaceuticals, Inc., priority 2003, dated 2008).
Structures can show the parent of a compound that is named as a salt.

Key:
[1] = test system: MO7e human leukemia cells
[2] = test system: MO7e human leukemia cells; conditions: GM-CSF stimulation

SMILES: Cc1ccc(NC(=O)c2ccc(CN3CCN(C)CC3)cc2)cc1Nc1nccc(-c2cccnc2)n1 [Gleevec, imatinib mesylate]
- Kit ligand-stimulated growth of MO7e human leukemia cells ([1]; Kit ligand stimulation): inhibited
- Apoptosis in MO7e human leukemia cells ([1]; under Kit ligand-stimulated growth conditions): induces apoptosis
- GM-CSF stimulated growth of MO7e human leukemia cells [2]: not affected
